Measured values from patent US11285142B2, “Compositions and methods for identifying and treating dystonia disorders” (DUKE UNIVERSITY, priority 2015, dated 2022).
“Also recorded” adds a separate entry of the source. Counter-ions that a name gives are not always drawn. Like-named read-outs stand apart in the source and are kept apart here.

Key:
[1] = test system: Flp-In T-REx 293 cells expressing delta-E Torsin1a; assay: Cytotoxicity (cell count, cellular morphology) in the Torsin1a assay cell line; assay type: cell-based, human; settings: for ΔE TorsinA Mislocalization Assay Cytotoxicity EC50: Table 5; for Cytotox CC-v2 (dose response Curve Class) / Cytotox Efficacy / Cytotox Max Resp / AC50: Table 6; for toxicity (cell count, cellular morphology; in words): at effective concentrations; for AC50: read-out: Cytotox AC50
Method: (§1) In order to test this model directly, the delta-E Torsin1a cell line was treated with compounds targeting the eIF2-alpha signaling pathway (FIG. 2). […] The following day, serial drug dilutions were prepared at 2× final concentration in assay media containing 10 μg/mL tetracycline and 30 μL of the drug/tetracycline mixture was added to the appropriate wells, while control wells received 30 μL of assay media alone or assay media+10 μg/mL tetracycline (final tetracycline concentration for all wells except negative controls: 5 μg/mL). Cells were then incubated at 37° C./5% CO^2 for 48 hours and fixed, permeabilized, Hoechst stained, and imaged as described above. The range of the Torsin1a localization effect was normalized to the percentage of cells with puncta in vehicle-treated delta-E cell line as the maximum and that in WT cell line as the minimum (FIG. 2, panels c-h). Cell count and EGFP-Torsin1a expression were normalized to their respective values in the vehicle-treated delta-E cell line as the maximum. All dose response data are the average of 4 independent experiments per dose. Untreated control data used for normalization are the average of 24 independent experiments.
(§2) Efficacy is calculated as the magnitude of the pathology correction relative to the mutant Torsin1a pathology. For example an efficacy=−100% would be equivalent to the WT TorsinA phenotype, and 0% would be equivalent to the Mutant TorsinA phenotype. CCv2 refers to the dose response Curve Class annotation, and AC refers to Active Concentration.

luciferase secretion = assay: C.Luc. Secretion Assay (luciferase secretion, secretory deficits); assay type: cell-based; settings: for C.Luc. Secretion Assay Secretion EC50 / EC50 / Emax: Table 5; for Emax: read-out: C.Luc. Secretion Assay Secretion Max Efficacy; for correction of secretory deficits (in words): orthogonal assays
Method: We tested each shRNA for its ability to rescue a previously described defect in luciferase secretion. Chen, P. et al. (2010) Hum. Mol. Genet. 19, 3502-15; Cao, S. et al. (2010) Dis. Model. Mech. 3, 386-96; Barrows, N. J., et al., (2010)J. Biomol. Screen. 15, 735-47.) DYT1 patient data were obtained from 4 independent patient-derived lines and WT data (black bar) from 3 normal healthy control lines. Each line was tested in 5 independent experiments that included 4 technical replicates each (with the exception of SCD data from 3 independent experiments).
(Cao, S. et al. (2010) Dis. Model. Mech. 3, 386-96.) Subsequent testing of additional HIV protease inhibitors supported the activity of this class of compounds and generated favorable structure-activity relationship (SAR) data from which to design improved compounds (Tables 5 and 6). The results with a subset of compounds were also observed in a Luciferase secretion assay (Tables 5 and 6).

[2] = test system: delta-E Torsin1a localization in Flp-In T-REx 293 cells expressing EGFP-delta-E Torsin1a; assay: delta-E Torsin1a mis-localization assay (high-content imaging, % cells with EGFP puncta); assay type: cell-based, human; settings: for ΔE TorsinA Mislocalization Assay Localization EC50 / EC50 / Emax: Table 5; for effect on delta-E Torsin1a localization (in words): delta-E cell line, dose response; for % pathology CC-v2 (dose response Curve Class) / AC50 / % pathology Max Resp / % pathology Efficacy: Table 6; for AC50: AC = Active Concentration, read-out: % pathology AC50; for % pathology Max Resp / % pathology Efficacy: normalized scale; for % pathology Max Resp: WT-TorsinA line 0%, DYT1 mutant line 100% pathology; for % pathology Efficacy: −100% = WT TorsinA phenotype, 0% = Mutant TorsinA phenotype; for EC50: read-out: ΔE TorsinA Mislocalization Assay Localization EC50; for Emax: read-out: ΔE TorsinA Mislocalization Assay Localization Max Efficacy
Method: To limit variation in expression levels associated with random integration or transient expression, single copies of either WT or delta-E human TOR1A cDNAs with N-terminal EGFP fusions were inserted at the FRT site in Flp-In™ T-Rex™ 293 cells (Thermo Fisher Scientific #R780-07) via flippase recombinase-mediated cassette exchange according to the manufacturer's recommended protocols.
The cells were maintained at 37° C./5% CO2. All experiments were performed on cells with fewer than 5 passages.
Torsin1a expression was also controlled by tetracycline induction to avoid selective pressure modifying the cellular phenotypes. […] The mutant phenotype was measured as the percentage of cells with one or more EGFP puncta using automated high-content imaging analysis (see infra).
The image analysis algorithm was developed using the Cellomics ArrayScan V CompartmentAnalysisV2 protocol. Hoechst's nuclear staining (Ch1: excitation 350 nm; emission 461 nm) was used for focusing and for cell identification by nuclear size, shape, and intensity. […] Detected cells were gated according to nuclear area, length-to-width ratio, and perimeter-to-area ratio. For the purpose of analysis, cell bodies were defined by a radius of 10 μm from the outer edge of the defined nucleus. Overlapping cells were automatically segmented according to the Cellomics ArrayScanV CompartmentAnalysisV2 object segmentation feature. EGFP fluorescence (Ch2: excitation 488 nm; emission 509 nm) was used for puncta detection. […] Torsin1a puncta were identified using the spot detection feature of the Compartmental AnalysisV2 protocol. The percentage of cells containing one or more puncta was used as the primary metric in this assay.
as §1

[3] = Cytotoxicity (cell count, cellular morphology) in the Torsin1a assay cell line; assay type: cell-based, human; settings: human; for AC50: Table 6, read-out: Cytotox AC50; for EC50 at 48 h: Flp-In T-REx 293 cells inducibly expressing delta-E Torsin1a, Table 5, read-out: ΔE TorsinA Mislocalization Assay Cytotoxicity EC50
Method: as §1, §2

With `CC(C)CN(C[C@@H](O)[C@H](Cc1ccccc1)NC(=O)O[C@H]1CCOC1)S(=O)(=O)c1ccc(N)cc1` [Amprenavir] the “ΔE TorsinA Mislocalization Assay Cytotoxicity EC50” value [1] was “None”, the “Cytotox CC-v2 (dose response Curve Class)” value (from here on “Cytotox CC-v2”) [1] was 4 and the “C.Luc. Secretion Assay Secretion EC50” value (luciferase secretion) was “No Activity”. The “ΔE TorsinA Mislocalization Assay Localization EC50” value [2] was “No Activity”.
With `COC(=O)N[C@H](C(=O)N[C@@H](Cc1ccccc1)[C@@H](O)CN(Cc1ccc(-c2ccccn2)cc1)NC(=O)[C@@H](NC(=O)OC)C(C)(C)C)C(C)(C)C` [Atazanavir] the “ΔE TorsinA Mislocalization Assay Cytotoxicity EC50” value [1] was “None”, the “Cytotox CC-v2” value [1] was 4 and the “C.Luc. Secretion Assay Secretion EC50” value (luciferase secretion) was “No Activity”. The “ΔE TorsinA Mislocalization Assay Localization EC50” value [2] was “No Activity”.
In the case of `CCN(CC)CCC(=O)N1N=C(c2c(-c3ccccc3)c3cc(Br)ccc3[nH]c2=O)CC1c1ccc(Br)cc1` (stereo not shown) [CCT020312], the “toxicity (cell count, cellular morphology; in words)” value [1] is reported as “highly toxic at effective concentrations” and the “effect on delta-E Torsin1a localization (in words)” value [2] is reported as “dose-dependent reduction”.
With `C[C@H](NC(=O)Cc1cc(F)cc(F)c1)C(=O)N[C@H](C(=O)OC(C)(C)C)c1ccccc1` [DAPT] the “effect on delta-E Torsin1a localization (in words)” value [2] was “no effect”.
In the case of `CC(C)CN(C[C@@H](O)[C@H](Cc1ccccc1)NC(=O)O[C@H]1CO[C@H]2OCC[C@H]21)S(=O)(=O)c1ccc(N)cc1` [Darunavir], the “C.Luc. Secretion Assay Secretion EC50” value (luciferase secretion) is reported as “No Activity” and the “ΔE TorsinA Mislocalization Assay Localization EC50” value [2] is reported as “No Activity”.
With `Cc1cccc(C)c1OCC(=O)NC(CCC(Cc1ccccc1)NC(=O)C(C(C)C)N1CCCNC1=O)Cc1ccccc1` (stereo not shown) [Des-hydroxy Lopinavir] the “Cytotox CC-v2” value [1] was −2.2, the “Cytotox Efficacy” value [1] was −77.66 and the “Cytotox Max Resp” value [1] was −66.67. For the same compound, the AC50 [1] was 20.9 µM, the “% pathology CC-v2 (dose response Curve Class)” value [2] was −3 and the AC50 [2] was 8.33 µM. For the same compound, the “% pathology Max Resp” value [2] was −33.96% and the “% pathology Efficacy” value [2] was −82.44%.
In the case of `CC(C)(C)NC(=O)[C@@H]1CN(Cc2cccnc2)CCN1C[C@@H](O)C[C@@H](Cc1ccccc1)C(=O)N[C@H]1c2ccccc2C[C@H]1O` [Indinavir sulfate], the “Cytotox CC-v2” value [1] is reported as −3, the “Cytotox Efficacy” value [1] is reported as −80.64 and the “Cytotox Max Resp” value [1] is reported as −67.80. For the same compound, the AC50 [3] was 37.2 µM, the AC50 ([2]; Homo sapiens, Flp-In-T-REx-293) was 29.6 µM and the “% pathology Max Resp” value [2] was −97.76%. For the same compound, the “% pathology Efficacy” value [2] was −114.60%.
For `CC(C)(C)NC(=O)[C@@H]1CN(Cc2cccnc2)CCN1C[C@@H](O)C[C@@H](Cc1ccccc1)C(=O)N[C@H]1c2ccccc2C[C@H]1O` [Indinavir, indinavir], the “toxicity (cell count, cellular morphology; in words)” value [1] was “no cellular toxicity observed at effective doses”, the EC50 at 48 h [3] was 35.2 µM and the “C.Luc. Secretion Assay Secretion EC50” value (luciferase secretion) was “No Activity”. The EC50 ([2]; Homo sapiens, Flp-In-T-REx-293) was 26.5 µM, the Emax ([2]; Homo sapiens, Flp-In-T-REx-293) was 114% and the “effect on delta-E Torsin1a localization (in words)” value [2] was “corrected TorsinA localization in a dose-dependent fashion”.
For `CS(=O)(=O)O.Cc1c(O)cccc1C(=O)N[C@@H](CSc1ccccc1)[C@H](O)CN1C[C@H]2CCCC[C@H]2C[C@H]1C(=O)NC(C)(C)C.O` [Nelfinavir mesylae hydrate], the “Cytotox CC-v2” value [1] was −1.1, the “Cytotox Efficacy” value [1] was −98.05 and the “Cytotox Max Resp” value [1] was −95.64. For the same compound, the AC50 [1] was 6.05 µM, the “% pathology CC-v2 (dose response Curve Class)” value [2] was −1.1 and the AC50 [2] was 2.7 µM. For the same compound, the “% pathology Max Resp” value [2] was −92.46% and the “% pathology Efficacy” value [2] was −75.26%.
With `Cc1c(O)cccc1C(=O)N[C@@H](CSc1ccccc1)[C@H](O)CN1C[C@H]2CCCC[C@H]2C[C@H]1C(=O)NC(C)(C)C` [Nelfinavir, nelfinavir] the “toxicity (cell count, cellular morphology; in words)” value [1] was “no cellular toxicity observed at effective doses”, the EC50 at 48 h [3] was 6.05 µM and the “C.Luc. Secretion Assay Secretion EC50” value (luciferase secretion) was “No Activity”. For the same compound, the EC50 ([2]; Homo sapiens, Flp-In-T-REx-293) was 3.49 µM, the Emax ([2]; Homo sapiens, Flp-In-T-REx-293) was 80% and the “effect on delta-E Torsin1a localization (in words)” value [2] was “corrected TorsinA localization in a dose-dependent fashion”.
In the case of `CC(C)c1nc(CN(C)C(=O)N[C@H](C(=O)N[C@@H](Cc2ccccc2)C[C@H](O)[C@H](Cc2ccccc2)NC(=O)OCc2cncs2)C(C)C)cs1` [Ritonavir, ritonavir], the “Cytotox CC-v2” value [1] is reported as 4, the “toxicity (cell count, cellular morphology; in words)” value [1] is reported as “no cellular toxicity observed at effective doses” and the EC50 (luciferase secretion) is reported as 3.72 µM. For the same compound, the Emax (luciferase secretion) was 49%, the “correction of secretory deficits (in words)” value (luciferase secretion) was “corrected secretory deficits” and the EC50 ([2]; Homo sapiens, Flp-In-T-REx-293) was 4.11 µM. The Emax ([2]; Homo sapiens, Flp-In-T-REx-293) was 87%, the AC50 ([2]; Homo sapiens, Flp-In-T-REx-293) was 2.96 µM and the “% pathology Max Resp” value [2] was −82.60%. The “% pathology Efficacy” value [2] was −92.96% and the “effect on delta-E Torsin1a localization (in words)” value [2] was “corrected TorsinA localization in a dose-dependent fashion; also recorded: restored”.
For `CC(C)(C)NC(=O)[C@@H]1C[C@@H]2CCCC[C@@H]2CN1C[C@@H](O)[C@H](Cc1ccccc1)NC(=O)[C@H](CC(N)=O)NC(=O)c1ccc2ccccc2n1` [Saquinavir mesylate], the AC50 [3] was 20.9 µM, the AC50 ([2]; Homo sapiens, Flp-In-T-REx-293) was 8.33 µM and the “% pathology Max Resp” value [2] was −84.62%. The “% pathology Efficacy” value [2] was −85.98%.
Compound `CC(C)(C)NC(=O)[C@@H]1C[C@@H]2CCCC[C@@H]2CN1C[C@@H](O)[C@H](Cc1ccccc1)NC(=O)[C@H](CC(N)=O)NC(=O)c1ccc2ccccc2n1` [Saquinavir, saquinavir] has an EC50 at 48 h [3] of 23.6 µM, an EC50 (luciferase secretion) of 8.09 µM and an Emax (luciferase secretion) of 34%. The “correction of secretory deficits (in words)” value (luciferase secretion) was “corrected secretory deficits”, the EC50 ([2]; Homo sapiens, Flp-In-T-REx-293) was 9.41 µM and the Emax ([2]; Homo sapiens, Flp-In-T-REx-293) was 88%. For the same compound, the “effect on delta-E Torsin1a localization (in words)” value [2] was “corrected TorsinA localization in a dose-dependent fashion”.
For `Cc1c(O)cccc1C(=O)N[C@@H](CSc1ccccc1)[C@H](O)CN1C[C@H]2CCCC[C@H]2C[C@H]1C(=O)NC(C)(C)C` [Viracept], the “Cytotox CC-v2” value [1] was −1.1, the “Cytotox Efficacy” value [1] was −106.32 and the “Cytotox Max Resp” value [1] was −97.72. The AC50 [3] was 10.5 µM, the AC50 ([2]; Homo sapiens, Flp-In-T-REx-293) was 5.26 µM and the “% pathology Max Resp” value [2] was −94.06%. For the same compound, the “% pathology Efficacy” value [2] was −119.39%.
For `N=C(N)N/N=C/c1c(Cl)cccc1Cl` [guanabenz], the “effect on delta-E Torsin1a localization (in words)” value [2] was “no effect”.
For `CCCC(CCC)C(=O)O` [valproic acid], the “effect on delta-E Torsin1a localization (in words)” value [2] was “no effect”.
